From US20090264457A1, “Combination of at least two 5HT6-Ligands” (priority 2007, published 2009)
“Also recorded” adds a separate entry of the source.

Tests used:
5HT6 receptor = 5HT6 receptor (Homo sapiens, UniProt P50406); settings: cited from earlier work
Lister Hooded rats = test: Novel object discrimination trial (two trial paradigm); format: in vivo, rat; settings: for Dose at which the maximum effect was achieved in dose response trials: i.p., drug 20 minutes before familiarisation trial, COMPOUND 1 at 1.25, 2.5, 5 or 10 mg/kg, SB-271046 at 5 or 10 mg/kg
Method: Adult male Lister Hooded rats (Charles River, UK) weighing 200-350 g at the start of the experiment were housed in groups of four on a 12:12 h light:dark cycle (lights on at 07:00 h). Food and water were available ad libitum throughout the study, and the room temperature (21±2° C.) and relative humidity (45-65%) were kept constant. […] Each drug combination was administered to all rats in the group over a period of 4 weeks in a random order using a seven day behavioural test interval.
The two trial novel object discrimination paradigm utilised, was as described by Ennaceur and Delacour, (1988) with minor modification (King et al., 2004b; Woolley et al., 2003). The twelve open field test arenas used for object discrimination were clear perspex boxes (39×23.5 cm with 24.5 cm high walls) to which each rat was habituated for 60 minutes the day prior to test days. On the test day the first drug was administered −40 minutes and the second drug −20 minutes before the familiarisation trial. Therefore, 20 minutes after the injection each rat received 3 minutes acclimatisation to the perspex box in absence of objects which was then followed by the 3 minute familiarisation trial and a second 3 minute choice trial following a 4 hour inter-trial interval. During both trials, exploration of each object was defined as the time spent (s) sniffing (within 1 cm of it with active vibrissae), licking, chewing or touching the object with the nose.

Chain of 5HT6 receptor (P50406 whole entry): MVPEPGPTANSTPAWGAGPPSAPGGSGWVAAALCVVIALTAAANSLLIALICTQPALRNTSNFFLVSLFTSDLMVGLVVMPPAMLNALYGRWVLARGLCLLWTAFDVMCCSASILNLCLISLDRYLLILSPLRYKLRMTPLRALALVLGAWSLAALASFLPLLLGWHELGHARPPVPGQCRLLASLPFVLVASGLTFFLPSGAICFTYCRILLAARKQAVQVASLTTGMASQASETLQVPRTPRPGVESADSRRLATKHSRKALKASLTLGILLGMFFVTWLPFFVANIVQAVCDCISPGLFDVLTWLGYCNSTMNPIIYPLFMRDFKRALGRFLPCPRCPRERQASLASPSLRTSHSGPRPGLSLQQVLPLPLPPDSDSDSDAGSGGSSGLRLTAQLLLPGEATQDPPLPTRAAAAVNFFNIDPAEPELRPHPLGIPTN

## CN(C)CCc1c[nH]c2ccc(NS(=O)(=O)c3c(Cl)nc4sccn34)cc12 [COMPOUND 1, 6-Chloro-imidazo[2,1-b]thiazole-5-sulfonic acid [3-(2-dimethylamino-ethyl)-1H-indol-5-yl]-amide]
5HT6 receptor
  Functionality on the 5HT6 receptor: agonist
Lister Hooded rats; COMPOUND 1 alone at 1 mg/kg i.p., 1 mg/kg
  Effectiveness alone in novel object discrimination: either not or very low effective; also recorded: neither COMPOUND 1 at 1 mg/kg nor SB-271046 at 5 mg/kg being significantly effective
Lister Hooded rats
  Dose at which the maximum effect was achieved in dose response trials: 5 mg/kg

## COc1ccc(NS(=O)(=O)c2sc3ccc(Cl)cc3c2C)cc1N1CCNCC1 [SB-271046, 5-Chloro-N-(4-methoxy-3-(piperazin-1-yl)phenyl)-3-methyl-2-benzothiophene sulfonamide]
5HT6 receptor
  Functionality on the 5HT6 receptor: antagonist
Lister Hooded rats; SB-271046 alone at 5 mg/kg i.p., 5 mg/kg
  Effectiveness alone in novel object discrimination: either not or very low effective; also recorded: neither COMPOUND 1 at 1 mg/kg nor SB-271046 at 5 mg/kg being significantly effective
Lister Hooded rats
  Dose at which the maximum effect was achieved in dose response trials: 10 mg/kg
